Source: paper PMC10057977, “Use of In Vivo Imaging and Physiologically-Based Kinetic Modelling to Predict Hepatic Transporter Mediated Drug–Drug Interactions in Rats” (Pharmaceutics, 2023)
Like-named read-outs stand apart in the source and are kept apart here. One block for each molecule: values may come before it.

Legend:
OATP1B1 = system: OATP1B1; set-up: method as in earlier work; details: in vitro; bracket not explained in the table; ref 30,43-55 and in-house data from Merck & Co.; cited from earlier work
rOatp1b = molecular target: T1, rOatp1b (Rattus norvegicus, UniProt Q9QZX8); format: in vivo; details: for Simple Effect Size (95% CI) K^trans: gadoxetate hepatic plasma clearance; for Simple Effect Size (95% CI) K^trans / Simple Effect Size (95% CI) khe: control − treatment, positive = decrease; for Simple Effect Size (95% CI) khe: gadoxetate hepatic uptake
T1 construct: from tissue; host or cells: liver of living male Wistar rats (Charles River Laboratories)
T1 sequence (Q9QZX8 1-687): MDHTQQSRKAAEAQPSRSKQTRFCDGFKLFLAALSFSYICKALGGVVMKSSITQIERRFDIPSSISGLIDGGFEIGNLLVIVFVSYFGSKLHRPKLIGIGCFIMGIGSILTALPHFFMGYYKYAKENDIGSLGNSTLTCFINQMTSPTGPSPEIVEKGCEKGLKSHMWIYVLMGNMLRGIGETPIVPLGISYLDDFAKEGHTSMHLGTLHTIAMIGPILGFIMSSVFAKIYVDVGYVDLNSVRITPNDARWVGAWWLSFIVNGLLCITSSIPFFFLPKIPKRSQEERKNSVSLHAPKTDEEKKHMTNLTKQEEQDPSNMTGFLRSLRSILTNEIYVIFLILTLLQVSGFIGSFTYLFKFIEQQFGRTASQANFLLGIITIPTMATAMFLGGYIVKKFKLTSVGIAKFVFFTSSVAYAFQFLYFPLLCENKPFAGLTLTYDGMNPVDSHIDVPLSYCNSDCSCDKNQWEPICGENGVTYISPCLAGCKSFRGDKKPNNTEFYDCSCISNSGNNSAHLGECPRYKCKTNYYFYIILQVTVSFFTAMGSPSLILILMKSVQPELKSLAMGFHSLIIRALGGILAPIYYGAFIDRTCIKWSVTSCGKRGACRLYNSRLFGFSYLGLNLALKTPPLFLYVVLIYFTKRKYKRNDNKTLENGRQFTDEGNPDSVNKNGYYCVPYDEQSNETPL
Source text: (§1) The tracer-kinetic model was developed to enable estimation of rate constants of hepatobiliary efflux from DCE-MRI profiles in individual animals. In this approach, the liver was assumed to consist of two compartments, the extracellular space (e) and the hepatocytes (h). Since water exchanges rapidly between those spaces, the change in relaxation rate was a weighted average (Equation (4)). (4) ΔR1(t)=r1,e·ve·ce(t)+r1,h·vh·ch(t)
(§2) The proportionality constant, r1,τ [L⋅mmol^−1⋅s^−1] , is the relaxivity of the contrast agent for the compartment τ (extracellular space, e or hepatocytes, h) at the respective field strength, while vτ [mL/mL tissue] is the volume fraction of the compartment τ . Previously measured ex vivo r1,tau values for gadoxetate were used in this work, as per. The underlying assumptions of the PBPK and tracer-kinetic models, relating to physiological volumes and perfusion, are consistent, despite different parameterizations according to the purpose of each model. For example, Vliv,extr in the PBPK model is defined as an absolute volume (units = L; sum of liver plasma and interstitial volumes), while in the tracer-kinetic model, ve is a volume fraction (dimensionless), defined as Vliv,extr/Vliver , where Vliver is the total liver volume. While some analogy can be drawn between CLactive […], and CLbiliary and kbh, the interpretations are distinct. For example, the operating concentrations of the PBPK parameters CLactive […], and CLbiliary are the unbound concentrations of gadoxetate in plasma and hepatocytes, while the tracer-kinetic model is parameterized with respect to the total concentration of gadoxetate.
(§3) Since ce(t) is the input to the hepatocytes, and no backflux from hepatocytes to extracellular space is assumed, Equation (5) can be derived. (5) vh·ch(t)=e^−t/Th∗khe·ce(t) where Th is the mean transit time of gadoxetate in the hepatocytes [min] , and * is convolution. The extracellular space is assumed to be in equilibrium with the blood pool and therefore the concentration ce(t) is proportional to the concentration cp(t) in the plasma of the feeding artery, i.e., ce(t) = (1 − E)·cp(t), where E is the extraction fraction of gadoxetate in the liver. Combining this assumption with Equations (4) and (5), and using (1 − E)·khe = E·Fp, with Fp being the apparent plasma flow into the liver [mL/min/mL tissue volume] , gives Equation (6), the operational equation for gadoxetate DCE-MRI in the liver. (6) ΔR1(t)=(1−E)·ve·r1,p·cp(t)+E·Fp·r1,h ·e^−t/Th ∗cp(t)
The rate constants were derived as K^trans = E·Fp, khe = E·Fp/(1 − E), and kbh = vh/Th, with a literature value for vh. The plasma concentrations cp(t) were not reliably measured in small animals due to the small diameter of the main vessels compared to the resolution of the measurement. […] Therefore, the source term cp(t) was derived from a two-compartment pharmacokinetic model for gadoxetate (see Supplementary Material, Section S5), and a step function as input in the blood compartment. The parameters kbh and khe were fitted to the liver data using a model implementation in Python. For each rat considered in these studies, the rate constants K^trans, khe, and kbh were calculated, in both control and inhibitory phases. […] Statistical significance was assessed through a two-sided paired t-test, with p < 0.05 considered significant.

[1] = unbound concentration ratio between hepatocyte and plasma; ref supplement [39] rifampicin, [40] asunaprevir, [41] bosentan, ciclosporin, ketoconazole; cited from earlier work
rMrp2 = rMrp2 (Rattus norvegicus, UniProt Q63120); format: in vivo; set-up: from tissue; host or cells: liver of living male Wistar rats (Charles River Laboratories); details: for Simple Effect Size (95% CI) kbh: gadoxetate biliary efflux, control − treatment, positive = decrease, site G2
rMrp2, sequence (Q63120 whole entry): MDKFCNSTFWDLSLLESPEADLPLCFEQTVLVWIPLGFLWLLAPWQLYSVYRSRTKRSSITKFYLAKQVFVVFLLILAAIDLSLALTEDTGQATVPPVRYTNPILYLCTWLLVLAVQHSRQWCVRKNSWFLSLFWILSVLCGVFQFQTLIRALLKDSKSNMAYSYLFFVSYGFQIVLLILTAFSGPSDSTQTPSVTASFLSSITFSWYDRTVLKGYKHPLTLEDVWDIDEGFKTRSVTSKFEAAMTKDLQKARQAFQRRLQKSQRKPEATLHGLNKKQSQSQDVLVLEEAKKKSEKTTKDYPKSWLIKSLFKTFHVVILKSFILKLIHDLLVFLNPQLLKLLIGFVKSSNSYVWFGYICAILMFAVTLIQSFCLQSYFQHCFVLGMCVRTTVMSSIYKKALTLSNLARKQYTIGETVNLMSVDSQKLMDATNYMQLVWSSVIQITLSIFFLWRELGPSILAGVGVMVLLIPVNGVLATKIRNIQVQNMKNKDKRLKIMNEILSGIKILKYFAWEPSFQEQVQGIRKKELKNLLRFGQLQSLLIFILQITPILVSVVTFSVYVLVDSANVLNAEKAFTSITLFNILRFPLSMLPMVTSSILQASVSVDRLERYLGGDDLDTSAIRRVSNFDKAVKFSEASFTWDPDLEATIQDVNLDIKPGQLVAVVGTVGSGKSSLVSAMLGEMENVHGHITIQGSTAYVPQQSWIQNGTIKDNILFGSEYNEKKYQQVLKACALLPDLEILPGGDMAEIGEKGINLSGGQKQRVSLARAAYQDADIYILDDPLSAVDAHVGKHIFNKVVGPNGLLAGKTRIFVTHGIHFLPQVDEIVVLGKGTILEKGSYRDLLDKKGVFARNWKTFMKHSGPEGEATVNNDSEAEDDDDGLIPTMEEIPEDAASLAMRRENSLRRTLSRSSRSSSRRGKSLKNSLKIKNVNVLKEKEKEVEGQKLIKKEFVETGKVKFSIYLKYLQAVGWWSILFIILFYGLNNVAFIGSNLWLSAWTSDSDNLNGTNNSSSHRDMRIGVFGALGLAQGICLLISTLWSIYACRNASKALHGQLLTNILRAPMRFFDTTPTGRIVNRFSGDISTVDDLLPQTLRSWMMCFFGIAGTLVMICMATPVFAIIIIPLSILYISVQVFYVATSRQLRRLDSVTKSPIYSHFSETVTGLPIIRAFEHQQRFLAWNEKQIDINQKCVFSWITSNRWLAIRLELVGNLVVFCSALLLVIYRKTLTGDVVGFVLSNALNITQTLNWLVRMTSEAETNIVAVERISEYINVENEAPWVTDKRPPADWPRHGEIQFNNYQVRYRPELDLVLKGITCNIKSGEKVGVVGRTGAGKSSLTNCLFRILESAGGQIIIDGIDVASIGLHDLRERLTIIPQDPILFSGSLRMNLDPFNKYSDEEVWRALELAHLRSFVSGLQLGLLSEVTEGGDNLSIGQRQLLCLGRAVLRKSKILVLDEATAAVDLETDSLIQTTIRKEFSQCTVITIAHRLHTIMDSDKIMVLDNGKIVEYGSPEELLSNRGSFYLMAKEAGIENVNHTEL
Source text: as §1, §2, §3
The rate constants were derived as K^trans = E·Fp, khe = E·Fp/(1 − E), and kbh = vh/Th, with a literature value for vh. The plasma concentrations cp(t) were not reliably measured in small animals due to the small diameter of the main vessels compared to the resolution of the measurement. […] Therefore, the source term cp(t) was derived from a two-compartment pharmacokinetic model for gadoxetate (see Supplementary Material, Section S5), and a step function as input in the blood compartment. The parameters kbh and khe were fitted to the liver data using a model implementation in Python. For each rat considered in these studies, the rate constants K^trans, khe, and kbh were calculated, in both control and inhibitory phases. The rate constants of the control and inhibitory phases were compared via calculation of simple (unstandardized) effect sizes (i.e., simple effect size = μcontrol − μtreatment, where μ is the mean average of all subjects) at the 95% confidence level. Statistical significance was assessed through a two-sided paired t-test, with p < 0.05 considered significant.

OATP1B3 = system: OATP1B3; set-up: method as in earlier work; details: in vitro; ref 30,43-55 and in-house data from Merck & Co.; cited from earlier work
[2] = pioglitazone 0.4 mg/kg iv, site E

Simple Effect Size (95% CI) K^trans (rOatp1b; asunaprevir 5 mg/kg iv, site E): 0.24 (−0.01, 0.48) mL/min/mL liver
Simple Effect Size (95% CI) khe (rOatp1b; asunaprevir 5 mg/kg iv, site E): 2.34 (−0.92, 5.60) mL/min/mL liver
decrease in gadoxetate kbh (rMrp2; rat, asunaprevir 5 mg/kg iv): 31%
Structure (SMILES): C=C[C@@H]1C[C@]1(NC(=O)[C@@H]1C[C@@H](Oc2ncc(OC)c3ccc(Cl)cc23)CN1C(=O)[C@@H](NC(=O)OC(C)(C)C)C(C)(C)C)C(=O)NS(=O)(=O)C1CC1 [Asunaprevir]
IC50 (OATP1B1): 0.55 µM
Kpuu [1]: 11.5
IC50 (OATP1B3): 0.65 µM

Structure (SMILES): COc1ccccc1Oc1c(NS(=O)(=O)c2ccc(C(C)(C)C)cc2)nc(-c2ncccn2)nc1OCCO [Bosentan]
IC50 (OATP1B1): 6.6 µM
Simple Effect Size (95% CI) K^trans (rOatp1b; bosentan 2 mg/kg iv, site G1, subjects 3, 4, 6 excluded): 0.28 (−0.32, 0.88) mL/min/mL liver
Simple Effect Size (95% CI) K^trans (rOatp1b; bosentan 4–6 mg/kg iv, site G2): 0.07 (−0.12, 0.26) mL/min/mL liver
Simple Effect Size (95% CI) khe (rOatp1b; bosentan 2 mg/kg iv, site G1, subjects 3, 4, 6 excluded, khe physiologically implausible): −54.22 (−197.97, 89.53) mL/min/mL liver
Simple Effect Size (95% CI) khe (rOatp1b; bosentan 4–6 mg/kg iv, site G2): 1.07 (−1.13, 3.26) mL/min/mL liver
Kpuu [1]: 3
Simple Effect Size (95% CI) kbh (rMrp2; bosentan 4–6 mg/kg iv): 0.02 (−0.02, 0.07) mL/min/mL liver
IC50 (OATP1B3): 5.2 µM

Structure (SMILES): CCc1ccc(CCOc2ccc(CC3SC(=O)NC3=O)cc2)nc1 (stereo not shown) [Pioglitazone]
Simple Effect Size (95% CI) K^trans (rOatp1b; [2]): 0.13 (−0.05, 0.32) mL/min/mL liver
Simple Effect Size (95% CI) khe (rOatp1b; [2]): 1.21 (−0.10, 2.51) mL/min/mL liver
decrease in gadoxetate kbh (rMrp2; rat, pioglitazone 0.4 mg/kg iv): 19%
IC50 (OATP1B3): 3.41 µM

Structure (SMILES): CO[C@H]1/C=C/O[C@@]2(C)Oc3c(C)c(O)c4c(O)c(c(/C=N/N5CCN(C)CC5)c(O)c4c3C2=O)NC(=O)/C(C)=C\C=C\[C@H](C)[C@H](O)[C@@H](C)[C@@H](O)[C@@H](C)[C@H](OC(C)=O)[C@@H]1C [Rifampicin]
IC50 (OATP1B1): 1.9 µM
Ki (OATP1B1): 0.67 µM
Simple Effect Size (95% CI) khe (rOatp1b; * p < 0.05, rifampicin 2 mg/kg iv, site G2): 7.20 mL/min/mL liver
Simple Effect Size (95% CI) kbh (rMrp2; ** p < 0.01, rifampicin 2 mg/kg iv): 0.07 mL/min/mL liver
IC50 (OATP1B3): 0.11 µM

hepatic extraction ratio (E) (rOatp1b; rat, in vivo): > 0.95
khe, new value in unified units (rOatp1b; rat, in vivo): 11.1 mL/min
khe, original value (rOatp1b; rat, in vivo): 1.31 mL/ min/ mL tissue volume
kbh, new value in unified units (rMrp2; rat, in vivo): 1.19 mL/min
kbh, original value (rMrp2; rat, in vivo): 0.14 mL/ min/ mL tissue volume
Structure (SMILES): CCOc1ccc(C[C@@H](CN(CCN(CC(=O)[O-])CC(=O)[O-])CC(=O)[O-])N(CC(=O)[O-])CC(=O)[O-])cc1.[Gd+3].[H+].[H+] [gadoxetate, Gadoxetate]
